Article PMC9030166, “Natural Phaeosphaeride A Derivatives Overcome Drug Resistance of Tumor Cells and Modulate Signaling Pathways” (Pharmaceuticals, 2022)

Tests used:
[1] = test system: K562; assay: MTT cytotoxicity, K562 chronic myeloid leukemia cells; type: cell-based; conditions: Homo sapiens
Description: (§1) Cell cultures used in the work: adhesive cultures HBL-100 cells (cells of a normal mammary gland epithelium, immortalized by the SV40 virus and acquired tumorigenicity); MCF-7 breast cancer cells; PC-3 prostate adenocarcinoma cells; HCT-116 colorectal cancer cells; non-small cell lung cancer cells A549; human embryonic kidney cells HEK293; suspension cultures (NCI-H929 and RPMI8226 multiple myeloma cells), K562 chronic myeloid leukemia cells; THP-1 acute monocytic leukemia cells; and Jurkat acute T-cell leukemia cells. We also used several primary cultures of soft tissue sarcomas at 3–4passeges, kindly provided by T.I. Fetisov (The Ethics Committee of N.N. Blokhin NMRCO, protocol code 18-28-09095 and date of approval 28 September 2018).
(§2) Modifications of cell lines: K562/i-S9 is a clone obtained after transfection of K562 cells with the ABCB1 (MDR1) gene-encoding P-glycoprotein [36]. Cells HBL-100/Dox and K562/i-S9_Dox are cells obtained by long-term selection with increasing concentrations of doxorubicin (Sigma-Aldrich, St. Louis, MO, USA) from HBL-100 and K562/i-S9 cells, respectively. MCF-7, A594 cells, and primary cultures of soft tissue sarcomas were cultured in DMEM medium (PanEko, Russia), PC-3 and HCT-116 cells and all suspension cultures in RPMI1640 medium (PanEko, Russia) supplemented with 10% fetal bovine serum (GE Healthcare LifeSciences, USA), and gentamicin at a concentration of 40 μg/mL at 37 °C and 5% CO2.
(§3) Cells MCF-7, PC-3, A549, and HCT-116, and primary cultures of STSwere seeded in 96-well plates, 6 × 10^3 cells per well in 90 μL of culture medium. Suspension cultures were seeded at a concentration of 25 × 10^3 cells per well in 135 μL of medium. The test substances were dissolved in DMSO (Applichem, Council Bluffs, IA, USA) until a concentration of 1 × 10^−^2 M was obtained; for the subsequent dilution of the substances, a serum-free culture medium was used. The next day, for adhesive cultures, and on the same day, for suspension cultures, substances were added to the plates in a volume of 10 μL (adhesive cultures) and 15 μL (suspension cultures) per well at various concentrations; each concentration was added in 3–4 repetitions. The cells were cultured in the presence of substances for 48 h. Then, MTT reagent (PanEko, Moscow, Russia) was added to the wells at a concentration of 5 mg/mL in a volume of 20 μL per well. After 1.5–2 h, the medium with the reagent was removed, and the precipitate of the crystals of formazan was dissolved in 60 μL of DMSO. The optical density was determined using a Multiskan FC spectrophotometer (Thermo Scientific, Waltham, MA, USA) at a wavelength of 540 nm.
(§4) Based on the results of the experiments, a schedule was plotted of the dependence of the percentage of surviving cells (from control) on the concentration of the compound, and the sought concentration IC50 was calculated. The experiments were carried out in 3–4 times.

[2] = test system: K562/i-S9; assay: MTT cytotoxicity, resistant K562/i-S9 cells (ABCB1 transfected); type: cell-based, human
Description: (§5) At the next stage, the cytotoxic activity of compounds 1, 2, and 9 (Scheme 2) was investigated on several pairs of cell lines that differ in the expression of P-gp and the method by which they were obtained. K562/i-S9 cells are the result of the ABCB1 transfection into K562 cells, which increases P-gp expression, but should not seriously affect other signaling pathways that could lead to drug resistance. K562/i-S9_Dox cells were obtained from K562/i-S9 by selection with low concentrations of doxorubicin to increase P-gp expression. Subline HBL-100/Dox is a derivative of HBL-100 cells, obtained by long-term selection with increasing concentrations of doxorubicin, which led not only to an increase in P-gp expression, but also to a change in the signaling pathways in this subline. Cells of the K562/i-S9_Dox subline express the highest level of P-gp: 94.7% ± 2.3 (p < 0.0001 relative to K562, and p = 0.04 relative to K562/i-S9). In cells of the K562/i-S9 line, the expression of P-gp is 80% ± 8.2 (p < 0.0001 relative to K562). At 0.7% ± 0.5, P-gp is practically not expressed in K562 cells (Figure 1).
as §2, §3, §4

[3] = test system: K562/i-S9_Dox; assay: MTT cytotoxicity, resistant K562/i-S9_Dox cells (P-gp overexpression); type: cell-based, human
Description: as §5, §2, §3, §4

[4] = test system: HBL-100; assay: MTT cytotoxicity, sensitive HBL-100 cells; type: cell-based; conditions: Homo sapiens, 48 h
Description: as §1, §3, §4

[5] = test system: HBL-100/Dox; assay: MTT cytotoxicity, resistant HBL-100/Dox cells; type: cell-based, human; conditions: for IC50: Homo sapiens, HBL-100, resistant version, MTT, 48 h
Description: At the next stage, the cytotoxic activity of compounds 1, 2, and 9 (Scheme 2) was investigated on several pairs of cell lines that differ in the expression of P-gp and the method by which they were obtained. […] K562/i-S9_Dox cells were obtained from K562/i-S9 by selection with low concentrations of doxorubicin to increase P-gp expression.
as §2, §3
The experiments were carried out in 3–4 times.

[6] = test system: HCT-116; assay: MTT cytotoxicity, HCT-116 colorectal cancer cells; type: cell-based, human; conditions: Homo sapiens, HCT-116, adhesive tumor culture, 48 h
Description: as §1, §2, §3, §4

[7] = test system: MCF-7; assay: MTT cytotoxicity, MCF-7 breast cancer cells; type: cell-based; conditions: Homo sapiens, MCF7, adhesive tumor culture, 48 h
Description: as §1, §2, §3, §4

[8] = test system: PC3; assay: MTT cytotoxicity, PC-3 prostate adenocarcinoma cells; type: cell-based, human; conditions: Homo sapiens, PC-3, adhesive tumor culture, 48 h
Description: as §1, §2, §3, §4

[9] = test system: A549; assay: MTT cytotoxicity, A549 non-small cell lung cancer cells; type: cell-based, human; conditions: Homo sapiens, A549, adhesive tumor culture, 48 h
Description: as §1, §2, §3, §4

[10] = test system: HEK293; assay: MTT cytotoxicity, human embryonic kidney cells HEK293; type: cell-based; conditions: 48 h
Description: as §1, §3, §4

[11] = test system: NCI-H929; assay: MTT cytotoxicity, NCI-H929 multiple myeloma cells; type: cell-based; conditions: Homo sapiens, suspension culture, 48 h
Description: as §1, §2, §3, §4

[12] = test system: THP-1; assay: MTT cytotoxicity, THP-1 acute monocytic leukemia cells; type: cell-based; conditions: Homo sapiens, suspension culture, 48 h
Description: as §1, §2, §3, §4

[13] = test system: RPMI8226; assay: MTT cytotoxicity, RPMI8226 multiple myeloma cells; type: cell-based; conditions: Homo sapiens, RPMI-8226, suspension culture, 48 h
Description: as §1, §2, §3, §4

[14] = test system: Jurkat; assay: MTT cytotoxicity, Jurkat acute T-cell leukemia cells; type: cell-based; conditions: Homo sapiens, suspension culture, 48 h
Description: as §1, §2, §3, §4

[15] = test system: CMT № 1 (Extraskeletal Ewing’s Sarcoma); assay: MTT cytotoxicity, primary culture of soft tissue sarcoma CMT № 1; type: cell-based; conditions: Homo sapiens, 48 h
Description: (§6) It is believed that such cultures have a molecular profile that corresponds more with cells from the human body, in comparison with that of stable cultures of tumor cells (Table 3).
as §1, §2
as §3, with “Then, MTT reagent (PanEko, Moscow, Russia) was added to the wells at a concentration of 5 mg/mL in a volume of 20 μL per well. After 1.5–2 h, the medium with the reagent was removed, and the precipitate of the crystals of formazan was dissolved in 60 μL of DMSO.” left out
(§7) Based on the results of the experiments, a schedule was plotted of the dependence of the percentage of surviving cells (from control) on the concentration of the compound, and the sought concentration IC50 was calculated. […]

[16] = test system: CMT № 2 (Malignant Schwannoma); assay: MTT cytotoxicity, primary culture of soft tissue sarcoma CMT № 2; type: cell-based; conditions: Homo sapiens, 48 h
Description: as §6, §1, §2
as §3, with “Then, MTT reagent (PanEko, Moscow, Russia) was added to the wells at a concentration of 5 mg/mL in a volume of 20 μL per well. After 1.5–2 h, the medium with the reagent was removed, and the precipitate of the crystals of formazan was dissolved in 60 μL of DMSO.” left out
as §7

[17] = test system: CMT № 3 (Epithelial Sarcoma (Metastasis)); assay: MTT cytotoxicity, primary culture of soft tissue sarcoma CMT № 3; type: cell-based; conditions: Homo sapiens, 48 h
Description: as §6, §1, §2
as §3, with “Then, MTT reagent (PanEko, Moscow, Russia) was added to the wells at a concentration of 5 mg/mL in a volume of 20 μL per well. After 1.5–2 h, the medium with the reagent was removed, and the precipitate of the crystals of formazan was dissolved in 60 μL of DMSO.” left out
as §7

[18] = K562, suspension culture, 48 h (Table 2)

Compound	IC50 [4] [µM]	IC50 [5] [µM]	IC50 [6] [µM]	IC50 [7] [µM]	IC50 [8] [µM]	IC50 [9] [µM]	IC50 [10] [µM]	IC50 [11] [µM]	IC50 [12] [µM]	IC50 [1, 18] [µM]	IC50 [13] [µM]	IC50 [14] [µM]	also measured
COc1cccc2c1C(=O)c1c(O)c3c(c(O)c1C2=O)C[C@@](O)(C(=O)CO)C[C@@H]3O[C@H]1C[C@H](N)[C@H](O)[C@H](C)O1 [Doxorubicin, doxorubicin, reference compound]	0.23 ± 0.03	128 ± 7.4	–	–	–	–	–	–	–	–	–	–	IC50 ([1]; sensitive K562 cells (Table 4), 48 h): 0.36 ± 0.17 µM; IC50 ([2]; Homo sapiens, K562i/S9, resistant version, ABCB1 transfected, MTT, 48 h): 3.9 ± 1.6 µM; resistance of K562/i-S9 cells relative to K562 ([2]; ratio of IC50 values, Table 4): 11 times; IC50 ([3]; Homo sapiens, K562, resistant version, doxorubicin selected, MTT, 48 h): 10.3 ± 1.2 µM; resistance of K562/i-S9_Dox cells relative to K562 ([3]; ratio of IC50 values, Table 4): 28 times; resistance of K562/i-S9_Dox relative to K562/i-S9 ([3]; ratio of IC50 values, Table 4): 2.6 times; resistance of HBL-100/Dox cells relative to HBL-100 ([5]; ratio of IC50 values, Table 5): 556 times
COc1cc([C@@H]2c3cc4c(cc3[C@@H](O[C@@H]3O[C@@H]5CO[C@@H](C)O[C@H]5[C@H](O)[C@H]3O)[C@H]3COC(=O)[C@H]23)OCO4)cc(OC)c1O [Etoposide, etoposide, reference compound]	4.7 ± 0.9	111 ± 8.3	21 ± 9.9	8.9 ± 2.3	27.1 ± 3.2	65.3 ± 5.2	2 ± 0.5	1.4 ± 0.5	1.8 ± 0.2	5.5 ± 3	7.2 ± 1.9	0.9 ± 0.3	–
C=C1C2=C(C(=O)N1OC)[C@@H](N(C)CCO)[C@@](C)(O)[C@H](CCCCC)O2 [Compound 8, (2S,3R,4R)-3-hydroxy-4-[(2-hydroxyethyl)(methyl)amino]-6-methoxy-3-methyl-7-methylene-2-pentyl-3,4,6,7-tetrahydropyrano[2,3-c]pyrrol-5(2H)-one]	–	–	7.5 ± 1	1.8 ± 0.4	3.3 ± 0.6	16.3 ± 0.9	3.8 ± 0.2	0.9 ± 0.3	1.8 ± 0.2	3.4 ± 0.3	1.5 ± 0.4	1 ± 0.3	IC50 [15]: 3.9 ± 0.8 µM; IC50 [16]: 2.3 ± 0.8 µM; IC50 [17]: 4.8 ± 0.5 µM
